In one test the target is Carbonic anhydrase 1 (Homo sapiens, UniProt P00915). Description: Inhibition of recombinant human carbonic anhydrase 1 preincubated with enzyme for 10 mins by phenol red dye based stopped flow CO2 hydration assay.
The target in the next test is Carbonic anhydrase 2 (Homo sapiens, UniProt P00918). Description: Inhibition of recombinant human carbonic anhydrase 2 preincubated with enzyme for 10 mins by phenol red dye based stopped flow CO2 hydration assay.
The target of the next test is Carbonic anhydrase 9 (Homo sapiens, UniProt Q16790).

Sequence of Carbonic anhydrase 1 (P00915 whole entry): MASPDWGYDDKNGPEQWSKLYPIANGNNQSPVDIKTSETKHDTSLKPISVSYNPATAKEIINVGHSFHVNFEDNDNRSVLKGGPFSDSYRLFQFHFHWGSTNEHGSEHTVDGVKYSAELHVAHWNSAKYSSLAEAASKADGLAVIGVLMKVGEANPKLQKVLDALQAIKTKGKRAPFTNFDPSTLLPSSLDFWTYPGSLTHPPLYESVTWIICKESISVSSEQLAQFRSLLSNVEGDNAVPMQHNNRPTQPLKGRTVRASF
Description for Carbonic anhydrase 9: Inhibition of recombinant human carbonic anhydrase 9 preincubated with enzyme for 10 mins by phenol red dye based stopped flow CO2 hydration assay

As a reminder, the Ki is the equilibrium dissociation constant of an inhibitor or competing ligand from its target. With `NS(=O)(=O)c1ccc(-c2ccc(C(=O)c3ccccc3C(=O)O)cc2)cc1`, the Ki on Carbonic anhydrase 1 was found to be 0.0394 µM; on Carbonic anhydrase 2, 0.00083 µM; at Carbonic anhydrase 9, 0.469 µM.
Regarding `Nc1cccc(C(O)c2ccc(-c3ccc(S(N)(=O)=O)cc3)cc2)c1` (stereo not drawn), the inhibition constant Ki on Carbonic anhydrase 1 turned out to be 0.0331 µM; at Carbonic anhydrase 2, 0.00078 µM; at Carbonic anhydrase 9, 0.464 µM.
Turning to `NS(=O)(=O)c1ccc(-c2ccc(C(O)c3cccc(C(=O)O)c3)cc2)cc1` (stereo not drawn), the Ki was 0.0069 µM on Carbonic anhydrase 1, 0.00083 µM on Carbonic anhydrase 2 and 0.0884 µM at Carbonic anhydrase 9.
As to `Nc1ccccc1C(=O)c1ccc(-c2ccc(S(N)(=O)=O)cc2)cc1`, the Ki is 0.218 µM on Carbonic anhydrase 1, 0.031 µM on Carbonic anhydrase 2 and 0.289 µM on Carbonic anhydrase 9.
As to `NS(=O)(=O)c1ccc(-c2ccc(Cc3ccccc3C(=O)O)cc2)cc1`, the Ki came to 0.0068 µM at Carbonic anhydrase 1, 0.00069 µM on Carbonic anhydrase 2 and 0.437 µM on Carbonic anhydrase 9.
Turning to `Nc1cccc(C(=O)c2ccc(-c3ccc(S(N)(=O)=O)cc3)cc2)c1`, the figures for the Ki at Carbonic anhydrase 1, at Carbonic anhydrase 2 and at Carbonic anhydrase 9 were 0.0873 µM, 0.0098 µM and 0.266 µM, respectively.
As to `NS(=O)(=O)c1ccc(-c2ccc(C(=O)c3cccc(C(=O)O)c3)cc2)cc1`, the Ki at Carbonic anhydrase 1 came to 0.0073 µM; on Carbonic anhydrase 2, 0.00094 µM; at Carbonic anhydrase 9, 0.491 µM.
Consider `NS(=O)(=O)c1ccc(-c2ccc(Cc3cccc(C(=O)O)c3)cc2)cc1`, for which the Ki at Carbonic anhydrase 1 turned out to be 0.0213 µM; at Carbonic anhydrase 2, 0.00057 µM; on Carbonic anhydrase 9 it was 0.323 µM.
In the case of `Nc1ccccc1C(O)c1ccc(-c2ccc(S(N)(=O)=O)cc2)cc1` (stereo not drawn), the Ki on Carbonic anhydrase 1 turned out to be 0.0084 µM; on Carbonic anhydrase 2, 0.00097 µM; at Carbonic anhydrase 9, 0.092 µM.
`NS(=O)(=O)c1ccc(-c2ccc(C3OC(=O)c4ccccc43)cc2)cc1` (stereo not drawn): the Ki on Carbonic anhydrase 1 came out at 0.0801 µM; on Carbonic anhydrase 2, 0.0007 µM; on Carbonic anhydrase 9, 0.249 µM.
In the same order, the values of `Nc1cccc(Cc2ccc(-c3ccc(S(N)(=O)=O)cc3)cc2)c1` are 0.0059 µM, 0.00092 µM and 0.556 µM.

The values are drawn from ChEMBL document CHEMBL4613276, “Discovery of New 1,1'-Biphenyl-4-sulfonamides as Selective Subnanomolar Human Carbonic Anhydrase II Inhibitors” (ACS Med Chem Lett, 2020).
